# Data: patent publication US11718612B2, “Inhibitors of receptor interacting protein kinase I for the treatment of disease” (Board of Regents, The University of Texas System, priority 2019, dated 2023)
# Molecular target: RIPK1 (Homo sapiens (Human), UniProt Q13546)
# Assay: ADP-Glo kinase assay, RIPK1 activity
# Format: biochemical
# Conditions: 5 nM RIPK1, 50 μM ATP, 6 hr reaction
# Protocol: In order to measure RIPK1 activity the ADP-Glo kinase assay (Promega, Catalog #V7002) was used to measure the conversion of ATP to ADP. This enzymatic assay was performed in a 384-well white, Optiplate (Perkin Elmer, Catalog #6007299) with assay buffer consisting of 50 mM HEPES pH 7.5 (Gibco, Catalog #15630-080), 50 mM NaCl (Teknova, Catalog #S0252), 30 mM MgCl2 (Ambion, Catalog #AM9530G), 1 mM DTT (Santa Cruz Biotechnology, Catalog #sc-29089), 0.05% BSA (Sigma, Catalog #A3059-50G) and 0.02% CHAPS (Sigma, Catalog #C5070-5G). Stock solutions of the test compounds were prepared in 100% DMSO (Sigma, Catalog #D2650) and serially diluted 1:3 using 100% DMSO. Compounds were additionally diluted 1:40 in assay buffer, and 2 μL/well were transferred to the assay plate. 4 μL/well (final concentration of 5 nM) of RIPK1 protein (SignalChem, Catalog #R07-11G-05) diluted in assay buffer and added to the assay plate followed by a 10 minute preincutation at room temperature. 4 μL/well of ATP (Promega, Catalog #V7002) (final concentration of 50 μM) diluted in assay buffer were then added to the assay plate followed by a 6 hr reaction time. Final concentrations of RIPK1 and ATP refer to a 10 μL volume. Luminescence was measured using a BioTek Synergy™ NEO plate reader. IC50 values were calculated using a four-parameter logistic curve fit using Genedata Screener software.
# Chain of RIPK1 (Q13546 1-327): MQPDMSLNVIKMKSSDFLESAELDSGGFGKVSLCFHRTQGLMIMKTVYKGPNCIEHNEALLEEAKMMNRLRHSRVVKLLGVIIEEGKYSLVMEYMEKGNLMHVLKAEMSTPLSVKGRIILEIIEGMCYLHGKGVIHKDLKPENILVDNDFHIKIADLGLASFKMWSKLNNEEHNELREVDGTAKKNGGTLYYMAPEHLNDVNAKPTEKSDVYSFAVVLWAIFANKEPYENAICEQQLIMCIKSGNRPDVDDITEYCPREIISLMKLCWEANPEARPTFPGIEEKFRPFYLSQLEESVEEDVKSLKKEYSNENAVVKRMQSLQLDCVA
row,IC50,SMILES
1,31200 nM,"O=C(Nc1cccc(Cl)c1F)c1cc(O)n(Cc2cnccn2)n1 [Example 8, N-(3-chloro-2-fluoro-phenyl)-5-hydroxy-1-(pyrazin-2-ylmethyl)pyrazole-3-carboxamide]"
2,6960 nM,"O=C(Nc1cccc(Cl)c1F)c1nc(Cc2ccccc2)c[nH]1 [Example 14, 4-Benzyl-N-(3-chloro-2-fluoro-phenyl)-1H-imidazole-2-carboxamide]"
3,3150 nM,"O=C1c2nc(Cc3ccccc3)cn2CCN1c1cccc(Cl)c1F [Example 15, 2-Benzyl-7-(3-chloro-2-fluoro-phenyl)-5,6-dihydroimidazo[1,2-a]pyrazin-8-one]"
4,123 nM,"O=C1c2nc(Cc3ccccc3)c(Cl)n2CCN1c1cccc(Cl)c1F [Example 16, 2-Benzyl-3-chloro-7-(3-chloro-2-fluoro-phenyl)-5,6-dihydroimidazo[1,2-a]pyrazin-8-one]"
5,18700 nM,"O=C(Nc1cccc(Cl)c1F)c1nc(Cc2ccccc2)c(Cl)[nH]1 [Example 18, 4-Benzyl-5-chloro-N-(3-chloro-2-fluoro-phenyl)-1H-imidazole-2-carboxamide]"
6,9250 nM,"COc1ccc(N(C)C(=O)c2ncn(Cc3ccccc3)n2)c(F)c1Cl [Example 41, 1-benzyl-N-(3-chloro-2-fluoro-4-methoxy-phenyl)-N-methyl-1H-1,2,4-triazole-3-carboxamide]"
7,318 nM,"O=C1c2nc(Cc3ccccc3)c(Cl)n2CCN1c1cccc(Cl)c1 [Example 42, 2-benzyl-3-chloro-7-(3-chlorophenyl)-6,7-dihydroimidazo[1,2-a]pyrazin-8(5H)-one]"
8,13700 nM,"O=C1c2nc(Cc3ccccc3)cn2CCN1c1cccc(Cl)c1 [Example 43, 2-benzyl-7-(3-chlorophenyl)-6,7-dihydroimidazo[1,2-a]pyrazin-8(5H)-one]"
9,> 33000 nM,"Cn1cc(C(=O)Nc2cccc(Cl)c2F)nc1Cc1ccccc1 [Example 44, 2-benzyl-N-(3-chloro-2-fluorophenyl)-1-methyl-1H-imidazole-4-carboxamide]"

row,SMILES,IC50
1,"Cc1cc(C(=O)Nc2cccc(Cl)c2F)nn1Cc1ccccc1 [Example 5, 1-benzyl-N-(3-chloro-2-fluoro-phenyl)-5-methyl-pyrazole-3-carboxamide]",14500 nM
2,"Cc1c(F)c(C(=O)Nc2cccc(Cl)c2F)nn1Cc1ccccc1 [Example 6, 1-Benzyl-N-(3-chloro-2-fluorophenyl)-4-fluoro-5-methyl-1H-pyrazole-3-carboxamide]",920 nM
3,"O=C(Nc1cccc(Cl)c1F)c1ccn(Cc2ccccc2)n1 [Example 7, 1-Benzyl-N-(3-chloro-2-fluorophenyl)-1H-pyrazole-3-carboxamide]",12100 nM
4,"Cc1nc(C(=O)Nc2cccc(Cl)c2F)nn1Cc1cccc(C#N)c1 [Example 34, N-(3-chloro-2-fluoro-phenyl)-1-(3-cyano-benzyl)-5-methyl-1H-1,2,4-triazole-3-carboxamide]",472 nM
5,"O=C(Nc1ccc(Cl)c(Cl)c1F)c1ncn(Cc2ccccc2)n1 [Example 37, 1-benzyl-N-(3,4-dichloro-2-fluoro-phenyl)-1H-1,2,4-triazole-3-carboxamide]",1100 nM
6,"O=C(Nc1cc(C(F)(F)F)cc(Cl)c1F)c1ncn(Cc2ccccc2)n1 [Example 38, 1-benzyl-N-(3-chloro-2-fluoro-5-(trifluoro-methyl)phenyl)-1H-1,2,4-triazole-3-carboxamide]",1300 nM
7,"N#Cc1ccc(NC(=O)c2ncn(Cc3ccccc3)n2)c(F)c1Cl [Example 39, 1-benzyl-N-(3-chloro-4-cyano-2-fluorophenyl)-1H-1,2,4-triazole-3-carboxamide]",1410 nM
8,"O=C(Nc1ccc(Br)c(Cl)c1F)c1ncn(Cc2ccccc2)n1 [Example 40, 1-benzyl-N-(4-bromo-3-chloro-2-fluoro-phenyl)-1H-1,2,4-triazole-3-carboxamide]",1650 nM

# Tested on: U937 cells
# Assay: Human U937 cellular necroptosis assay
# Format: cell-based
# Conditions: U-937; U937 cells stimulated with 25 ng/mL human TNFalpha and 25 μM z-VAD-FMK; 22 hr; Cell Titer-Glo viability
# Protocol: Human U937 Cellular Necroptosis Assay
# The human monocytic cell line U937 (CRL-1593.2) may be purchased from ATCC. The cells are routinely maintained in RPMI-1640 Medium (Gibco, Catalog #11875-093) supplemented with 10% heat inactivated fetal bovine serum (Gibco, Catalog #16140-071), 100 units/mL penicillin and 100 μg/mL streptomycin (Gibco, Catalog #15140-122), in a humidified incubator (37° C., 5% CO2). For the assay, cells are resuspended in RPMI-1640 phenol red free Media (Gibco, Catalog #11835-030) supplemented with 10% fetal bovine serum (Sigma, Catalog #F2442), 100 units/mL penicillin and 100 ug/mL streptomycin. […] Stock solutions of the test compounds are prepared in 100% DMSO (Sigma, Catalog #D2650) and serially diluted 1:3 using 100% DMSO. Compounds are additionally diluted 1:40 in assay medium, and 10 μL/well was transferred to the plate. Following the compound addition, the plate is incubated at 37° C. and 5% CO2 for 22 hr. After 22 hr, viability is assessed with the addition of 20 μL of Cell Titer-Glo 2.0 (Promega, Catalog #G9243). The tissue culture plate is shaken on an orbital shaker at 300 RPM for 15 minutes at room temperature in the dark. Luminescence is measured using a PerkinElmer Envision™ plate reader. IC50 values are calculated using a four-parameter logistic curve fit using Genedata Screener software.
row,SMILES,IC50
1,"COCCOCc1cc(Cl)c(F)c(N2CCc3c(nn(Cc4cccc(F)c4F)c3Cl)C2=O)c1 [Example 80, 3-chloro-6-(3-chloro-2-fluoro-5-((2-methoxyethoxy)methyl)phenyl)-2-(2,3-difluorobenzyl)-2,4,5,6-tetrahydro-7H-pyrazolo[3,4-c]pyridin-7-one]",958 nM
2,"COCc1cc(Cl)c(F)c(N2CCc3c(nn(Cc4cccc(F)c4F)c3Cl)C2=O)c1 [Example 81, 3-chloro-6-(3-chloro-2-fluoro-5-(methoxymethyl)phenyl)-2-(2,3-difluorobenzyl)-2,4,5,6-tetrahydro-7H-pyrazolo[3,4-c]pyridin-7-one]",> 10000 nM
3,"O=C1c2nn(Cc3cccc(F)c3F)c(Cl)c2CCN1c1cc(Cn2ccnc2)cc(Cl)c1F [Example 82, 6-(5-((1H-imidazol-1-yl)methyl)-3-chloro-2-fluorophenyl)-3-chloro-2-(2,3-difluorobenzyl)-2,4,5,6-tetrahydro-7H-pyrazolo[3,4-c]pyridin-7-one]",863 nM
4,"O=C1c2nn(Cc3cccc(F)c3F)c(Cl)c2CCN1c1cc(CNCC(F)(F)F)cc(Cl)c1F [Example 83, 3-chloro-6-(3-chloro-2-fluoro-5-(((2,2,2-trifluoroethyl)amino)methyl)phenyl)-2-(2,3-difluorobenzyl)-2,4,5,6-tetrahydro-7H-pyrazolo[3,4-c]pyridin-7-one]",1230 nM
5,"N#CCc1cc(Cl)c(F)c(N2CCc3c(nn(Cc4cccc(F)c4F)c3Cl)C2=O)c1 [Example 84, 2-(3-chloro-5-(3-chloro-2-(2,3-difluorobenzyl)-7-oxo-2,4,5,7-tetrahydro-6H-pyrazolo[3,4-c]pyridin-6-yl)-4-fluorophenyl)acetonitrile]",142 nM
6,"CC(=O)NCc1cc(Cl)c(F)c(N2CCc3c(nn(Cc4cccc(F)c4F)c3Cl)C2=O)c1 [Example 85, N-(3-chloro-5-(3-chloro-2-(2,3-difluorobenzyl)-7-oxo-2,4,5,7-tetrahydro-6H-pyrazolo[3,4-c]pyridin-6-yl)-4-fluorobenzyl)acetamide]",1040 nM
7,"Cc1cnc(Cn2cnc(C(=O)Nc3cccc(Cl)c3F)n2)cn1 [Example 91, N-(3-chloro-2-fluorophenyl)-1-((5-methylpyrazin-2-yl)methyl)-1H-1,2,4-triazole-3-carboxamide]",2560 nM
8,"NCc1cc(Cl)c(F)c(NC(=O)c2ncn(Cc3ccccc3)n2)c1 [Example 92, N-(5-(aminomethyl)-3-chloro-2-fluorophenyl)-1-benzyl-1H-1,2,4-triazole-3-carboxamide]",1650 nM
9,"CS(=O)(=O)NCc1cc(Cl)c(F)c(NC(=O)c2ncn(Cc3ccccc3)n2)c1 [Example 93, 1-Benzyl-N-(3-chloro-2-fluoro-5-(methylsulfonamidomethyl)phenyl)-1H-1,2,4-triazole-3-carboxamide]",1500 nM
10,"O=C(Nc1cc(CO)cc(Cl)c1F)c1ncn(Cc2ccccc2)n1 [Example 94, 1-Benzyl-N-(3-chloro-2-fluoro-5-(hydroxymethyl)phenyl)-1H-1,2,4-triazole-3-carboxamide]",797 nM
11,COCCOCc1cc(Cl)c(F)c(NC(=O)c2ncn(Cc3ccccc3)n2)c1 [Example 95],529 nM
12,"N#CCc1cc(Cl)c(F)c(NC(=O)c2ncn(Cc3ccccc3)n2)c1 [Example 96, 1-Benzyl-N-(3-chloro-5-(cyanomethyl)-2-fluorophenyl)-1H-1,2,4-triazole-3-carboxamide]",347 nM
13,"O=C(Nc1cc(Cn2ccnc2)cc(Cl)c1F)c1ncn(Cc2ccccc2)n1 [Example 97, N-(5-((1H-imidazol-1-yl)methyl)-3-chloro-2-fluorophenyl)-1-benzyl-1H-1,2,4-triazole-3-carboxamide]",1180 nM
14,"O=C(Nc1cc(Cn2cnc3ccccc32)cc(Cl)c1F)c1ncn(Cc2ccccc2)n1 [Example 98, N-(5-((1H-benzo[d]imidazol-1-yl)methyl)-3-chloro-2-fluorophenyl)-1-benzyl-1H-1,2,4-triazole-3-carboxamide]",3860 nM
15,"O=C(Nc1cc(Cn2cccn2)cc(Cl)c1F)c1ncn(Cc2ccccc2)n1 [Example 99, N-(5-((1H-pyrazol-1-yl)methyl)-3-chloro-2-fluorophenyl)-1-benzyl-1H-1,2,4-triazole-3-carboxamide]",2540 nM
